Data: publication PMC11012799 (Molecules, 2024)

Columns and labels:
Ishikawa cells = assay: cells; assay type: cell-based, human; conditions: for IC50: Homo sapiens, Ishikawa, 24 h, read-out: IC50 (µM) Ishikawa; for selectivity index (SI) Ishikawa: efficacy against Ishikawa versus normal fibroblasts L929, SI > 1.0 = greater efficacy against cancer cells
Procedure: (§1) Considering our previous research and the literature reports on the antitumor activity of aziridine derivatives, aziridine phosphines (1–4) and aziridine phosphine oxides (5–9) were tested to investigate their potential anticancer activity. The in vitro effects on cell viability were assessed using the 3-(4,5-dimethylthiazol-2-yl)-2,5-diphenyltetrazolium bromide (MTT) assay on non-tumorigenic murine fibroblasts (L929) as well as two cancer cell lines: human cervical epithelioid carcinoma (HeLa) cells and endometrial adenocarcinoma (Ishikawa) cells.
(§2) Cell viability inhibition: The in vitro effects on cell viability were determined using the 3-(4,5-dimethylthiazol-2-yl)-2,5-diphenyltetrazolium bromide (MTT) assay on non-tumorigenic murine fibroblasts L929 (ATTC®—CCL-1) as well as two cancer cell lines: human cervical epithelioid carcinoma HeLa cells (ATTC®—CCL-2™) and endometrial adenocarcinoma Ishikawa cells (ECACC 99040201). Cells were cultured on 96-well microplates at a density of 1 × 10^4 cells/well following the international in Dulbecco’s Modified Eagle’s Medium (DMEM, Biowest) supplemented with 10% fetal bovine serum (FBS, Biowest, Nuaillé, France), 100 U/mL of penicillin, and 100 μg/mL of streptomycin (Biowest, Nuaillé, France). After overnight incubation at 37 °C and 5% CO2, the growth medium was removed and 100 μL of fresh media with two-fold dilutions of the tested compounds at concentrations of 3.125–100 μM were added. […] Untreated cells in medium were used as a positive control, while a clear culture medium served as a negative control.

HeLa cells [1] = assay: cells; assay type: cell-based, human; conditions: for IC50: Homo sapiens, 24 h, read-out: IC50 (µM) HeLa; for selectivity index (SI) HeLa: efficacy against HeLa versus normal fibroblasts L929, SI > 1.0 = greater efficacy against cancer cells
Procedure: as §1, §2

HeLa cells [2] = assay: LDH release assay; assay type: cell-based, human; conditions: 24 h, highest concentration of 50 µM
Procedure: In order to distinguish whether the cell viability inhibition was attributed to growth inhibition or cytotoxicity manifested by cell membrane disruption, the lactate dehydrogenase (LDH) release assay was conducted. LDH is a cytoplasmic enzyme rapidly released from cells upon membrane damage, a key feature of apoptosis, necrosis, and other forms of cell death. The released enzyme can be detected due to its ability to convert lactate into pyruvate and NADH, which is then specifically determined by a colorimetric assay.
Figure 3 The effects of 5 (blue) and 7 (green) on LDH release from HeLa cells. The cells were treated with compounds at a concentration range of 3.125–50 μM for 24 h at 37 °C and 5% CO2. Data are presented as the mean LDH release (%) ± SD of two experiments compared to untreated control (red). Statistical significance measured by two-way analysis of variance (ANOVA) is indicated by asterisks: (*) p < 0.05.
LDH release assay: The activity of 5 and 7 on cell membrane destabilization was determined with the CytoTox 96®Non-Radioactive Cytotoxicity Assay (Promega, Madison, WI, USA). […] After incubation, Stop Solution (50 μL) was added to each well, and the absorbance was measured at 490 nm using the SpectraMax i3 Multi-Mode Platform (Molecular Devices, San Jose, CA, USA). […]

[3] = test system: Klebsiella pneumoniae ATCC 13883; assay: MIC, two-fold microdilution (EUCAST), K. pneumoniae reference strain; assay type: cell-based; conditions: Klebsiella pneumoniae, ATCC13883, 18 h, read-out: MIC (µM) Klebsiella pneumoniae ATCC 13883
From the text: A panel of reference bacteria, including Escherichia coli NCTC 8196, Staphylococcus aureus ATCC 6538, Klebsiella pneumoniae ATCC 13883, and Pseudomonas aeruginosa NCTC 6749, was used to assess the antibacterial activity of the nine tested aziridine phosphines (1–4) and aziridine phosphine oxides (5–9). The two-fold microdilution method, following EUCAST guidelines, was used to determine a minimal inhibitory concentration (MIC) of each compound, as presented in Table S1.
Antibacterial activity: The in vitro antibacterial activity of nine tested aziridine phosphines (1–4) and aziridine phosphine oxides (5–9) was evaluated against reference bacterial strains (E. coli NCTC 8196, S. aureus ATCC 6538, K. pneumoniae ATCC 13883, P. aeruginosa NCTC 6749) and 12 S. aureus clinical isolates, including two methicillin-resistant isolates (MRSA, D15 and D17) obtained from infected patients hospitalized at the Oncological Hospital in Lodz (Poland). All strains were kept frozen at −80 °C in Tryptic Soy Broth with 15% glycerol. The minimal inhibitory concentration (MIC) is defined as the lowest concentration of the compound that prevents visible growth of bacteria using the microdilution method followed the EUCAST guidelines. Each compound was added to 96-well microplates in two-fold dilutions at concentrations from 3.125 to 100 μM in Mueller–Hinton broth. […] Bacterial culture was added into wells at a density of 5 × 10^5 CFU mL^−1, and plates were incubated at 37 °C for 18 h. As a positive control, an untreated bacterial culture was used, and a clear culture medium served as a negative control. The optical density at OD600 was measured using the SpectraMax i3 Multi-Mode Platform (Molecular Devices, San Jose, CA, USA). Ciprofloxacin hydrochloride (CIP, Sigma-Aldrich, Darmstadt, Germany) was used as a reference antimicrobial drug.

Compound | IC50 (Ishikawa cells) [µM] | selectivity index (SI) Ishikawa (Ishikawa cells) | IC50 (HeLa cells [1]) [µM] | selectivity index (SI) HeLa (HeLa cells [1]) | LDH release compared to untreated control (HeLa cells [2]) | MIC [3] [µM]
CC(C)C[C@H]1CN1c1ccccc1P(=O)(c1ccccc1)c1ccccc1 [Compound 7] | 10.5 ± 3.1 | 1.7 | 7.1 ± 2.6 | 2.5 | significant LDH release | > 100
CC(C)[C@@H]1CN1c1ccccc1P(=O)(c1ccccc1)c1ccccc1 [Compound 5] | 4.6 ± 2.3 | 2.3 | 6.4 ± 2.1 | 1.7 | significant LDH release | > 100
